pKd: −log10 of the molar value.
Assays:
Format in all cases: cell-based
[1] = tested on: HEK293S; assay: Binding affinity to Aplysia californica AchBP I106M, M116L mutant expressed in HEK293S cells assessed as specific photoincorporation at 46 pmol by scintillation counting relative to wild type
[2] = tested on: HEK293S; assay: Binding affinity to Aplysia californica AchBP V108M mutant expressed in HEK293S cells assessed as specific photoincorporation at 46 pmol by scintillation counting
[3] = tested on: HEK293S; assay: Binding affinity to Aplysia californica AchBP I118M, M116L, Y195F mutant expressed in HEK293S cells assessed as specific photoincorporation at 46 pmol by scintillation counting
[4] = Binding affinity to Aplysia californica AchBP A107M mutant expressed in HEK293S cells by scintillation proximity assay
[5] = Binding affinity to Aplysia californica AchBP I106M, M116L, Y195F mutant expressed in HEK293S cells by scintillation proximity assay
[6] = Binding affinity to Aplysia californica AchBP A107M, M116L mutant expressed in HEK293S cells by scintillation proximity assay
[7] = tested on: HEK293S; assay: Binding affinity to Aplysia californica AchBP A107M, M116L mutant expressed in HEK293S cells assessed as specific photoincorporation at 46 pmol by scintillation counting relative to wild type
[8] = tested on: HEK293S; assay: Binding affinity to Aplysia californica AchBP Y195F mutant expressed in HEK293S cells assessed as specific photoincorporation at 46 pmol by scintillation counting
[9] = Binding affinity to Aplysia californica AchBP M116Y mutant expressed in HEK293S cells by scintillation proximity assay
[10] = tested on: HEK293S; assay: Binding affinity to Aplysia californica AchBP V108M, M116L, Y195F mutant expressed in HEK293S cells assessed as specific photoincorporation at 46 pmol by scintillation counting relative to wild type
[11] = Binding affinity to Aplysia californica AchBP S114M mutant expressed in HEK293S cells by scintillation proximity assay
[12] = tested on: HEK293S; assay: Binding affinity to Aplysia californica AchBP V108M, M116L mutant expressed in HEK293S cells assessed as specific photoincorporation at 46 pmol by scintillation counting relative to wild type
[13] = Binding affinity to Aplysia californica AchBP S114M, M116L, Y195F mutant expressed in HEK293S cells by scintillation proximity assay
[14] = Binding affinity to wild type Aplysia californica AchBP expressed in HEK293S cells by scintillation proximity assay
[15] = Binding affinity to Aplysia californica AchBP Y195F mutant expressed in HEK293S cells by scintillation proximity assay
[16] = tested on: HEK293S; assay: Binding affinity to Aplysia californica AchBP M116L,Y195F mutant expressed in HEK293S cells assessed as specific photoincorporation at 46 pmol by scintillation counting
[17] = Binding affinity to Aplysia californica AchBP I118M mutant expressed in HEK293S cells by scintillation proximity assay
[18] = Binding affinity to Aplysia californica AchBP M116L,Y195F mutant expressed in HEK293S cells by scintillation proximity assay
[19] = tested on: HEK293S; assay: Binding affinity to Aplysia californica AchBP M116Y, Y195F mutant expressed in HEK293S cells assessed as specific photoincorporation at 46 pmol by scintillation counting
[20] = tested on: HEK293S; assay: Binding affinity to Aplysia californica AchBP M116Y mutant expressed in HEK293S cells assessed as specific photoincorporation at 46 pmol by scintillation counting
[21] = tested on: HEK293S; assay: Binding affinity to Aplysia californica AchBP A107M, M116L mutant expressed in HEK293S cells assessed as specific photoincorporation at 46 pmol by scintillation counting
[22] = tested on: HEK293S; assay: Binding affinity to Aplysia californica AchBP S114M, M116L, Y195F mutant expressed in HEK293S cells assessed as specific photoincorporation at 46 pmol by scintillation counting relative to wild type
[23] = Binding affinity to Aplysia californica AchBP M116L mutant expressed in HEK293S cells by scintillation proximity assay
[24] = tested on: HEK293S; assay: Binding affinity to Aplysia californica AchBP A107M mutant expressed in HEK293S cells assessed as specific photoincorporation at 46 pmol by scintillation counting relative to wild type
[25] = tested on: HEK293S; assay: Binding affinity to Aplysia californica AchBP V108M mutant expressed in HEK293S cells assessed as specific photoincorporation at 46 pmol by scintillation counting relative to wild type
[26] = tested on: HEK293S; assay: Binding affinity to Aplysia californica AchBP A107M, M116L, Y195F mutant expressed in HEK293S cells assessed as specific photoincorporation at 46 pmol by scintillation counting
[27] = tested on: HEK293S; assay: Binding affinity to Aplysia californica AchBP A107M, M116L, Y195F mutant expressed in HEK293S cells assessed as specific photoincorporation at 46 pmol by scintillation counting relative to wild type
[28] = tested on: HEK293S; assay: Binding affinity to Aplysia californica AchBP I106M, M116L, Y195F mutant expressed in HEK293S cells assessed as specific photoincorporation at 46 pmol by scintillation counting
[29] = Binding affinity to Aplysia californica AchBP A107M, M116L, Y195F mutant expressed in HEK293S cells by scintillation proximity assay
[30] = tested on: HEK293S; assay: Binding affinity to Aplysia californica AchBP S114M, M116L mutant expressed in HEK293S cells assessed as specific photoincorporation at 46 pmol by scintillation counting
[31] = tested on: HEK293S; assay: Binding affinity to Aplysia californica AchBP V108M, M116L mutant expressed in HEK293S cells assessed as specific photoincorporation at 46 pmol by scintillation counting
[32] = tested on: HEK293S; assay: Binding affinity to Aplysia californica AchBP I106M, M116L mutant expressed in HEK293S cells assessed as specific photoincorporation at 46 pmol by scintillation counting
[33] = tested on: HEK293S; assay: Binding affinity to Aplysia californica AchBP I118M, M116L, Y195F mutant expressed in HEK293S cells assessed as specific photoincorporation at 46 pmol by scintillation counting relative to wild type
[34] = Binding affinity to Aplysia californica AchBP I118M, M116L mutant expressed in HEK293S cells by scintillation proximity assay
[35] = tested on: HEK293S; assay: Binding affinity to Aplysia californica AchBP M116L mutant expressed in HEK293S cells assessed as specific photoincorporation at 46 pmol by scintillation counting relative to wild type
[36] = Binding affinity to Aplysia californica AchBP S114M, M116L mutant expressed in HEK293S cells by scintillation proximity assay
[37] = tested on: HEK293S; assay: Binding affinity to Aplysia californica AchBP M116L mutant expressed in HEK293S cells assessed as specific photoincorporation at 46 pmol by scintillation counting
[38] = Binding affinity to Aplysia californica AchBP M116Y, Y195F mutant expressed in HEK293S cells by scintillation proximity assay

## Clc1ccc(C2CC3CCC2N3)cn1 (racemic) [EPIBATIDINE]
[1]
  Activity: 90%
[2]
  Activity: 9.5%
[3]
  Activity: 4.7%
[4]
  pKd: 8.00
[5]
  pKd: 7.54
[6]
  pKd: 8.12
[7]
  Activity: 100%
[8]
  Activity: 1%
[9]
  pKd: 7.24
[10]
  Activity: 0%
[11]
  pKd: 7.80
[12]
  Activity: 28%
[13]
  pKd: 7.62
[14]
  pKd: 8.07
[15]
  pKd: 7.68
[16]
  Activity: 2%
[17]
  pKd: 8.00
[18]
  pKd: 7.66
[19]
  Activity: 8.7%
[20]
  Activity: 17%
[21]
  Activity: 29%
[22]
  Activity: 13%
[23]
  pKd: 8.05
[24]
  Activity: 93%
[25]
  Activity: 33%
[26]
  Activity: 3.7%
[27]
  Activity: 13%
[28]
  Activity: 3.7%
[29]
  pKd: 7.60
[30]
  Activity: 19%
[31]
  Activity: 8.1%
[32]
  Activity: 26%
[33]
  Activity: 16%
[34]
  pKd: 8.30
[35]
  Activity: 121%
[36]
  pKd: 7.92
[37]
  Activity: 35%
[38]
  pKd: 6.94

— ChEMBL document CHEMBL1136964, “Nicotinic agonist binding site mapped by methionine- and tyrosine-scanning coupled with azidochloropyridinyl photoaffinity labeling” (J Med Chem, 2009)
